Results: US20070078096A1, “Buffered drug formulations for transdermal electrotransport delivery” (priority 1997, published 2007)
Where two headings read alike, the source gives them in different places. Non-standard residues stand in square brackets, D forms with d. Residues, ends and D or L forms follow the SMILES beside them. Cit = NC(=O)NCCC[C@H](N)C(=O)O; Orn = NCCC[C@H](N)C(=O)O

Test: pKa, pI and charge distribution of buffers
Details: for % salt: fraction of dipeptide carrying a net charge in aqueous solution at pH equal to pI
Excerpt: At the pI, three species coexist.
In an electric field these negative species move in the opposite direction of their positive associated counterions.
Choice of the dipeptide buffer will be on a case-by-case basis depending on the drug compound and the desired level of pH control and conductivity of the formulation.

| Molecule | pka A | pI (Table 2) | % salt [%] | pka B | pI | species presenting a net charge (salt form) at the pI (at pI) |
| --- | --- | --- | --- | --- | --- | --- |
| C[C@H](N)C(=O)N[C@@H](Cc1cnc[nH]1)C(=O)O [Ala-His] (H-Ala-His-OH) | 2.42 | 7.55 | 22 |  |  |  |
| Cn1cncc1C[C@H](NC(=O)CCN)C(=O)O [Anserine] | 2.64 | 8.27 | 10 |  |  |  |
| NC(N)=NCCC[C@H](N)C(=O)N[C@@H](CC(=O)O)C(=O)O [Arg-Asp] (H-Arg-Asp-OH) |  | 6.08 | 2 |  |  |  |
| NC(N)=NCCC[C@H](N)C(=O)N[C@@H](CCC(=O)O)C(=O)O [Arg-Glu] (H-Arg-Glu-OH) |  | 6.06 | 3 |  |  |  |
| NC(=O)C[C@H](N)C(=O)N[C@@H](Cc1cnc[nH]1)C(=O)O [Asn-His] (H-Asn-His-OH) | 2.42 | 7.00 | 44 |  |  |  |
| N[C@@H](CC(=O)O)C(=O)N[C@@H](CC(=O)O)C(=O)O [Asp-Asp] (H-Asp-Asp-OH) |  | 3.05 | 43 | 8.26 |  |  |
| N[C@@H](CC(=O)O)C(=O)N[C@@H](Cc1cnc[nH]1)C(=O)O [Asp-His] (H-Asp-His-OH) |  | 4.90 | 3 |  |  |  |
| NCCC(=O)N[C@@H](Cc1c[nH]cn1)C(=O)O [Beta-Alanylhistidine] |  | 7.70 | 16 |  |  |  |
| NCCC(=O)N[C@@H](Cc1cnc[nH]1)C(=O)O [Carnosine] |  | 8.17 | 8 |  |  |  |
| NC(=O)NCCC[C@H](N)C(=O)N[C@@H](Cc1c[nH]cn1)C(=O)O [Citrulline-His] (H-[Cit]-His-OH) | 2.42 | 7.30 | 32 |  |  |  |
| NC(=O)CC[C@H](N)C(=O)N[C@@H](Cc1cnc[nH]1)C(=O)O [GIn-His] (H-Gln-His-OH) | 2.42 | 7.20 | 36 |  |  |  |
| NC(N)=NCCC[C@H](NC(=O)[C@@H](N)CCC(=O)O)C(=O)O [Glu-Arg] (H-Glu-Arg-OH) |  | 6.00 | 2 |  |  |  |
| N[C@@H](CCC(=O)O)C(=O)N[C@@H](Cc1cnc[nH]1)C(=O)O [Glu-His] (H-Glu-His-OH) |  | 5.20 | 5 |  | 5.2 | about 5% |
| NCC(=O)N[C@@H](CC(=O)O)C(=O)O [Gly-Asp] (H-Gly-Asp-OH) |  | 3.60 | 23 | 8.60 |  |  |
| NC(=O)C[C@H](NC(=O)[C@@H](N)Cc1cnc[nH]1)C(=O)O [His-Asn] (H-His-Asn-OH) | 2.62 | 6.95 | 22 |  |  |  |
| NC(=O)NCCC[C@H](NC(=O)[C@@H](N)Cc1c[nH]cn1)C(=O)O [His-Citrulline] (H-His-[Cit]-OH) | 3.05 | 6.95 | 22 |  |  |  |
| NC(=O)CC[C@H](NC(=O)[C@@H](N)Cc1cnc[nH]1)C(=O)O [His-Gln] (H-His-Gln-OH) | 2.93 | 6.95 | 22 |  |  |  |
| N[C@@H](Cc1cnc[nH]1)C(=O)N[C@@H](Cc1cnc[nH]1)C(=O)O [His-His] | 2.25 | 7.40 | 32 |  |  |  |
| NCC(O)CC[C@H](NC(=O)[C@@H](N)Cc1c[nH]cn1)C(=O)O (stereo partly shown) [His-Hydroxylysine] | 3.05 | 8.75 | 17 |  |  |  |
| N[C@@H](Cc1c[nH]cn1)C(=O)N1CC(O)C[C@H]1C(=O)O (stereo partly shown) [His-Hydroxyproline] | 2.42 | 6.95 | 22 |  |  |  |
| CC[C@H](C)[C@H](NC(=O)[C@@H](N)Cc1cnc[nH]1)C(=O)O [His-Isoleucine] (H-His-Ile-OH) | 3.13 | 6.95 | 22 |  |  |  |
| CC(C)C[C@H](NC(=O)[C@@H](N)Cc1cnc[nH]1)C(=O)O [His-Leu] (H-His-Leu-OH) | 3.10 | 6.95 | 22 |  |  |  |
| NCCCC[C@H](NC(=O)[C@@H](N)Cc1cnc[nH]1)C(=O)O [His-Lys] (H-His-Lys-OH) | 3.05 | 9.40 | 5 |  |  |  |
| CSCC[C@H](NC(=O)[C@@H](N)Cc1cnc[nH]1)C(=O)O [His-Met] (H-His-Met-OH) | 2.89 | 6.95 | 22 |  |  |  |
| NCCC[C@H](NC(=O)[C@@H](N)Cc1c[nH]cn1)C(=O)O [His-Ornithine] (H-His-[Orn]-OH) | 2.82 | 9.40 | 5 |  |  |  |
| N[C@@H](Cc1cnc[nH]1)C(=O)N[C@@H](Cc1ccccc1)C(=O)O [His-Phe] (H-His-Phe-OH) | 2.88 | 6.95 | 22 |  |  |  |

| Molecule | pka A | pI (Table 2) | % salt [%] | pka B | pI | species presenting a net charge (salt form) at the pI (at pI) |
| --- | --- | --- | --- | --- | --- | --- |
| N[C@@H](Cc1cnc[nH]1)C(=O)N1CCC[C@H]1C(=O)O [His-Pro] | 2.62 | 6.95 | 22 |  |  |  |
| N[C@@H](Cc1cnc[nH]1)C(=O)N[C@@H](CO)C(=O)O [His-Ser] (H-His-Ser-OH) | 2.65 | 6.95 | 22 |  |  |  |
| C[C@@H](O)[C@H](NC(=O)[C@@H](N)Cc1cnc[nH]1)C(=O)O [His-Thr] (H-His-Thr-OH) | 2.98 | 6.95 | 22 |  |  |  |
| N[C@@H](Cc1cnc[nH]1)C(=O)N[C@@H](Cc1c[nH]c2ccccc12)C(=O)O [His-Trp] | 3.07 | 6.95 | 22 |  |  |  |
| N[C@@H](Cc1cnc[nH]1)C(=O)N[C@@H](Cc1ccc(O)cc1)C(=O)O [His-Tyr] (H-His-Tyr-OH) |  | 6.95 | 22 |  |  |  |
| CC(C)[C@H](NC(=O)[C@@H](N)Cc1cnc[nH]1)C(=O)O [His-Val] (H-His-Val-OH) | 3.18 | 6.95 | 22 |  |  |  |
| NC[C@H](O)CC[C@H](N)C(=O)N[C@@H](Cc1c[nH]cn1)C(=O)O [Hydroxylysine-His] | 2.42 | 8.60 | 13 |  |  |  |
| O=C(O)[C@H](Cc1c[nH]cn1)NC(=O)[C@@H]1CC(O)CN1 (stereo partly shown) [Hydroxyproline-His] | 2.42 | 7.45 | 25 |  |  |  |
| CC[C@H](C)[C@H](N)C(=O)N[C@@H](Cc1cnc[nH]1)C(=O)O [Isoleucine-His] (H-Ile-His-OH) | 2.42 | 7.44 | 25 |  |  |  |
| CC(C)C[C@H](N)C(=O)N[C@@H](Cc1cnc[nH]1)C(=O)O [Leu-His] (H-Leu-His-OH) | 2.42 | 7.50 | 24 |  |  |  |
| NCCCC[C@H](N)C(=O)N[C@@H](Cc1cnc[nH]1)C(=O)O [Lys-His] | 2.42 | 9.50 | 5 |  |  |  |
| CSCC[C@H](N)C(=O)N[C@@H](Cc1cnc[nH]1)C(=O)O [Met-His] (H-Met-His-OH) | 2.42 | 7.35 | 30 |  |  |  |
| NCCC[C@H](N)C(=O)N[C@@H](Cc1c[nH]cn1)C(=O)O [Ornithine-His] | 2.42 | 9.20 | 3 |  |  |  |
| N[C@@H](Cc1ccccc1)C(=O)N[C@@H](Cc1cnc[nH]1)C(=O)O [Phe-His] (H-Phe-His-OH) | 2.42 | 7.20 | 36 |  |  |  |
| O=C(O)C(Cc1cnc[nH]1)NC(=O)C1CCCN1 (stereo not shown) [Pro-His] | 2.42 | 7.90 | 11 |  |  |  |
| N[C@@H](CO)C(=O)N[C@@H](Cc1cnc[nH]1)C(=O)O [Ser-His] (H-Ser-His-OH) | 2.42 | 7.20 | 36 |  |  |  |
| C[C@@H](O)[C@H](N)C(=O)N[C@@H](Cc1cnc[nH]1)C(=O)O [Thr-His] (H-Thr-His-OH) | 2.42 | 7.15 | 39 |  |  |  |
| N[C@@H](Cc1c[nH]c2ccccc12)C(=O)N[C@@H](Cc1cnc[nH]1)C(=O)O [Trp-His] (H-Trp-His-OH) | 2.42 | 7.30 | 32 |  |  |  |
| NC(N)=NCCC[C@H](NC(=O)[C@@H](N)Cc1ccc(O)cc1)C(=O)O [Tyr-Arg] |  | 8.40 | 17 |  |  |  |
| N[C@@H](Cc1ccc(O)cc1)C(=O)N[C@@H](Cc1cnc[nH]1)C(=O)O [Tyr-His] (H-Tyr-His-OH) |  | 7.15 | 39 |  |  |  |
| Gly-Gly-Gly-Gly-His (GGGGH; printed: Gly-Gly-Gly-Gly-His) |  |  |  |  | 7.55 |  |
| Gly-Gly-Gly-His (GGGH; printed: Gly-Gly-Gly-His) |  |  |  |  | 7.5 |  |
| Gly-Gly-His |  |  |  |  | 7.5 |  |
| His-Gly-Gly |  |  |  |  | 6.9 |  |
| His-Gly-Gly-Gly (HGGG; printed: His-Gly-Gly-Gly) |  |  |  |  | 6.9 |  |
| His-Gly-Gly-Gly-Gly (HGGGG; printed: His-Gly-Gly-Gly-Gly) |  |  |  |  | 6.0 |  |
